The target in this assay is T1, GlyT1 (Homo sapiens, UniProt P48067).
T1 construct: expressed in transfected cells
T1 sequence (P48067 1-706): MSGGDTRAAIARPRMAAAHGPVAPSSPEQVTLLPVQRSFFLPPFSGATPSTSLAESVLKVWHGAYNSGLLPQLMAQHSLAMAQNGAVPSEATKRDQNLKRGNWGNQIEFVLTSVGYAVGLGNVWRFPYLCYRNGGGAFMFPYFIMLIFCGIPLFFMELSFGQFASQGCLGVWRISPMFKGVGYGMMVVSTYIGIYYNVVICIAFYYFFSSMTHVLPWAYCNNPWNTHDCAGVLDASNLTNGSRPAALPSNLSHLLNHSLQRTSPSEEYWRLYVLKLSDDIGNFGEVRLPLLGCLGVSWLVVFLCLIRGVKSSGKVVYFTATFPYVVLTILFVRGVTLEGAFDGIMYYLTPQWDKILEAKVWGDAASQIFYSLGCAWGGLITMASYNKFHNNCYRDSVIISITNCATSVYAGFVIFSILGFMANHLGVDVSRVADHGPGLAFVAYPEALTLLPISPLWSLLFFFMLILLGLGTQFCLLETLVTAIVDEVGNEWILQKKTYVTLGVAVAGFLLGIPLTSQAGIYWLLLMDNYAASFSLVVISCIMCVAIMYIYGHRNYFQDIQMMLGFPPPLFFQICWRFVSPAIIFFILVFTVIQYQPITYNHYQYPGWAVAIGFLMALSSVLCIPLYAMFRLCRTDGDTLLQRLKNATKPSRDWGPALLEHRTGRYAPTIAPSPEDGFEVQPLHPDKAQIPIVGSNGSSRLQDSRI
The assay can be described thus: Glycine Transporter 1 (GlyT1) uptake assay, scintillation proximity assay of [14C]-glycine uptake. The assay is classed as cell-based. Conditions: SPA, four parameter logistic fit, read-out: GlyT1 (pIC50) (converted). Summed up: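 [14C]-glycine uptake read by scintillation proximity on a plate counter. IC50 from four-parameter logistic fit of dose-response data.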
Consider `CC(C)n1cc2c(n1)CN(C(=O)c1cc(S(C)(=O)=O)ccc1N1CCC(F)(F)CC1)C2` [Example 433, 4 4-Difluoro-1-{4-methanesulfonyl-2-[2-(propan-2-yl)-2H 4H 5H 6H-pyrrolo[3,4-c]pyrazole-5-carbonyl]phenyl}piperidine], for which the IC50 was 100 to 1000 nM.

On to `Cc1cccc(-n2cc3c(n2)CN(C(=O)c2cc(S(=O)(=O)CC4CC4)ccc2O[C@@H](C)C(F)(F)F)C3)c1` [Example 145, 5-(5-Cyclopropylmethanesulfonyl-2-{[(2S)-1 1 1-trifluoropropan-2-yl]oxy}benzoyl)-2-(3-methylphenyl)-2H 4H 5H 6H-pyrrolo[3,4-c]pyrazole], for which the IC50 is 1000 to 10000 nM.

Take `CC(C)Oc1ccc(S(=O)(=O)C(C)C)cc1C(=O)N1Cc2cn(-c3ccc(F)cc3)nc2C1` [Example 98, 2-(4-Fluorophenyl)-5-[2-(propan-2-yloxy)-5-(propane-2-sulfonyl)benzoyl]-2H 4H 5H 6H-pyrrolo[3,4-c]pyrazole]: the IC50 was 100 to 1000 nM.

Turning to `CCS(=O)(=O)c1ccc(-c2ccccc2)c(C(=O)N2Cc3cn(-c4ccnc(C)c4)nc3C2)c1` [Example 567, 4-{5-[5-(Ethanesulfonyl)-2-phenylbenzoyl]-2H 4H 5H 6H-pyrrolo[3,4-c]pyrazol-2-yl}-2-methylpyridine], the IC50 is < 100 nM. For `COc1c(C#N)ccc(C2(F)CCCC2)c1C(=O)N1Cc2cn(-c3ccnc(C)c3)nc2C1` [Example 376, 4-(1-Fluorocyclopentyl)-2-methoxy-3-[2-(2-methylpyridin-4-yl)-2H 4H 5H 6H-pyrrolo[3,4-c]pyrazole-5-carbonyl]benzonitrile], the IC50 was < 100 nM. In the case of `COc1c(C#N)ccc(O[C@@H](C)C(F)(F)F)c1C(=O)N1Cc2cn(-c3ncccc3F)nc2C1` [Example 261], the IC50 was < 100 nM. With `C[C@H](Oc1ccc(C#N)c(Cl)c1C(=O)N1Cc2cn(-c3ccccc3F)nc2C1)C(F)(F)F` [Example 269, 2-Chloro-3-[2-(2-fluorophenyl)-2H 4H 5H 6H-pyrrolo[3,4-c]pyrazole-5-carbonyl]-4-{[(2S)-1 1 1-trifluoropropan-2-yl]oxy}benzonitrile], the IC50 was < 100 nM. On to `CC(C)COc1ccc(S(C)(=O)=O)cc1C(=O)N1Cc2cn(-c3ccc(F)cc3)nc2C1` [Example 574, 2-(4-Fluorophenyl)-5-[5-methanesulfonyl-2-(2-methylpropoxy)benzoyl]-2H 4H 5H 6H-pyrrolo[3,4-c]pyrazole], for which the IC50 was < 100 nM. Turning to `COc1c(C#N)ccc(OCC2(C)CC2)c1C(=O)N1Cc2cn(-c3ccc(F)cc3)nc2C1` [Example 512, 3-[2-(4-Fluorophenyl)-2H 4H 5H 6H-pyrrolo[3,4-c]pyrazole-5-carbonyl]-2-methoxy-4-[(1-methylcyclopropyl)methoxy]benzonitrile], the IC50 was < 100 nM.

Take `Cc1nn(-c2ccccc2)c2c1CN(C(=O)c1cc(S(C)(=O)=O)ccc1N1CCCCC1)CC2` [Example 166, 1-(4-Methanesulfonyl-2-{3-methyl-1-phenyl-1H 4H 5H 6H 7H-pyrazolo[4,3-c]pyridine-5-carbonyl}phenyl)piperidine]: the IC50 was 100 to 1000 nM. `COc1c(C#N)ccc(O[C@@H](C)C(F)(F)F)c1C(=O)N1Cc2cnn(-c3ccc(C#N)cc3)c2C1` [Example 284, 3-[1-(4-Cyanophenyl)-1H 4H 5H 6H-pyrrolo[3,4-c]pyrazole-5-carbonyl]-2-methoxy-4-{[(2S)-1 1 1-trifluoropropan-2-yl]oxy}benzonitrile]: the IC50 was < 100 nM. `CS(=O)(=O)c1ccc(N2CCCCC2)c(C(=O)N2Cc3cn(-c4ccc(F)cn4)nc3C2)c1` [Example 115, 5-Fluoro-2-{5-[5-methanesulfonyl-2-(piperidin-1-yl)benzoyl]-2H 4H 5H 6H-pyrrolo[3,4-c]pyrazol-2-yl}pyridine]: the IC50 was < 100 nM. The result for `COc1c(C#N)ccc(O[C@H](C)C(F)(F)F)c1C(=O)N1Cc2cn(-c3ccnc(C)c3)nc2C1` [Example 288, 2-Methoxy-3-[2-(2-methylpyridin-4-yl)-2H 4H 5H 6H-pyrrolo[3,4-c]pyrazole-5-carbonyl]-4-{[(2R)-1 1 1-trifluoropropan-2-yl]oxy}benzonitrile] reads < 100 nM. The result for `CC(C)COc1ccc(S(C)(=O)=O)cc1C(=O)N1Cc2cn(-c3cccc(C(F)(F)F)c3F)nc2C1` [Example 52, 2-[2-Fluoro-3-(trifluoromethyl)phenyl]-5-[5-methanesulfonyl-2-(2-methylpropoxy)benzoyl]-2H 4H 5H 6H-pyrrolo[3,4-c]pyrazole] reads < 100 nM; that for `COc1c(C#N)ccc(O[C@@H](C)C(F)(F)F)c1C(=O)N1CCc2nn(-c3ccc(C(F)(F)F)nc3)cc2C1` [Example 238, 2-Methoxy-3-{2-[6-(trifluoromethyl)pyridin-3-yl]-2H 4H 5H 6H 7H-pyrazolo[4,3-c]pyridine-5-carbonyl}-4-{[(2S)-1 1 1-trifluoropropan-2-yl]oxy}benzonitrile], 100 to 1000 nM; that for `CC(C)(C)COc1ccc(C#N)cc1C(=O)N1Cc2cn(-c3ccc(F)cc3)nc2C1` [Example 526, 4-(2 2-Dimethylpropoxy)-3-[2-(4-fluorophenyl)-2H 4H 5H 6H-pyrrolo[3,4-c]pyrazole-5-carbonyl]benzonitrile], < 100 nM. For the molecule `COc1c(C#N)ccc(OC(C)C(F)(F)F)c1C(=O)N1CCc2nn(C)cc2C1` (stereo not shown) [Example 204, 2-Methoxy-3-{2-methyl-2H 4H 5H 6H 7H-pyrazolo[4,3-c]pyridine-5-carbonyl}-4-[(1 1 1-trifluoropropan-2-yl)oxy]benzonitrile], the IC50 is 100 to 1000 nM. With `Cc1cc(-n2cc3c(n2)CN(C(=O)c2cc(C#N)ccc2OC(C)(C)C(F)(F)F)C3)ccn1` [Example 542, 3-[2-(2-Methylpyridin-4-yl)-2H 4H 5H 6H-pyrrolo[3,4-c]pyrazole-5-carbonyl]-4-[(1 1 1-trifluoro-2-methylpropan-2-yl)oxy]benzonitrile], the IC50 is < 100 nM.

With `CCc1cc(-n2cc3c(n2)CN(C(=O)c2cc(C#N)ccc2OCC2CC2)C3)ccn1` [Example 544, 4-(Cyclopropylmethoxy)-3-[2-(2-ethylpyridin-4-yl)-2H 4H 5H 6H-pyrrolo[3,4-c]pyrazole-5-carbonyl]benzonitrile], the IC50 is 100 to 1000 nM.

`CC(C)Oc1cc(-n2cc3c(n2)CN(C(=O)c2cc(C#N)ccc2OC(C)C(F)(F)F)C3)ccn1` (stereo in doubt) [Example 372, 3-{2-[2-(Propan-2-yloxy)pyridin-4-yl]-2H 4H 5H 6H-pyrrolo[3,4-c]pyrazole-5-carbonyl}-4-{[(2S)-1 1 1-trifluoropropan-2-yl]oxy}benzonitrile]: the IC50 was 100 to 1000 nM. The result for `C[C@H](Oc1ccc(S(=O)(=O)CC2CC2)cc1C(=O)N1Cc2cn(-c3ccccc3)nc2C1)C(F)(F)F` [Example 144, 5-(5-Cyclopropylmethanesulfonyl-2-{[(2S)-1 1 1-trifluoropropan-2-yl]oxy}benzoyl)-2-phenyl-2H 4H 5H 6H-pyrrolo[3,4-c]pyrazole] reads > 10000 nM; that for `N#Cc1ccc(C2CCC2)c(C(=O)N2CCc3nn(-c4ccccc4)cc3C2)c1F` [Example 180, 4-Cyclobutyl-2-fluoro-3-{2-phenyl-2H 4H 5H 6H 7H-pyrazolo[4,3-c]pyridine-5-carbonyl}benzonitrile], 1000 to 10000 nM; that for `COc1c(C#N)ccc(OCC(F)F)c1C(=O)N1Cc2cn(-c3cncc(F)c3)nc2C1` [Example 331, 4-(2 2-Difluoroethoxy)-3-[2-(5-fluoropyridin-3-yl)-2H 4H 5H 6H-pyrrolo[3,4-c]pyrazole-5-carbonyl]-2-methoxybenzonitrile], < 100 nM. Turning to `COc1c(C#N)ccc(O[C@@H](C)C(F)(F)F)c1C(=O)N1Cc2cn(-c3ccccc3F)nc2C1` [Example 270, 3-[2-(2-Fluorophenyl)-2H 4H 5H 6H-pyrrolo[3,4-c]pyrazole-5-carbonyl]-2-methoxy-4-{[(2S)-1 1 1-trifluoropropan-2-yl]oxy}benzonitrile], the IC50 was < 100 nM. Consider `N#Cc1ccc(-c2ccccc2F)c(C(=O)N2Cc3cn(-c4cncc(F)c4)nc3C2)c1` [Example 550, 4-(2-Fluorophenyl)-3-[2-(5-fluoropyridin-3-yl)-2H 4H 5H 6H-pyrrolo[3,4-c]pyrazole-5-carbonyl]benzonitrile], for which the IC50 is 1000 to 10000 nM. The same measure for `C[C@H](Oc1ccc(S(C)(=O)=O)cc1C(=O)N1Cc2cn(CC3CCCC3)nc2C1)C(F)(F)F` [Example 413, 2-(Cyclopentylmethyl)-5-(5-methanesulfonyl-2-{[(2S)-1 1 1-trifluoropropan-2-yl]oxy}benzoyl)-2H 4H 5H 6H-pyrrolo[3,4-c]pyrazole]: < 100 nM. Consider `CCc1cc(-n2cc3c(n2)CN(C(=O)c2cc(C#N)ccc2OCC(F)F)C3)ccn1` [Example 545, 4-(2 2-Difluoroethoxy)-3-[2-(2-ethylpyridin-4-yl)-2H 4H 5H 6H-pyrrolo[3,4-c]pyrazole-5-carbonyl]benzonitrile], for which the IC50 is 100 to 1000 nM.

`CCS(=O)(=O)c1ccc(-c2cccc(F)c2)c(C(=O)N2Cc3cn(-c4ccnc(C)c4)nc3C2)c1` [Example 568]: the IC50 is < 100 nM.

(Values after patent publication US9708334B2, “Substituted 2,4,5,6-tetrahydropyrrolo[3,4-c]pyrazole and 4,5,6,7-tetrahydro-2H-pyrazolo[4,3-c]pyridine compounds as GlyT1 inhibitors” (DART NEUROSCIENCE (CAYMAN) LTD., priority 2014, dated 2017).)
